Data from patent US8198317B2, “Methylenedioxy phenolic compounds and their use to treat disease” (The Ohio State University Research Foundation, priority 2008, dated 2012).

How the values were obtained:
[1] = target: T1, human full length PPARα (Homo sapiens, UniProt Q07869); assay: PPARα promoter-reporter luciferase assay in HepG2 cells; assay type: cell-based
T1 construct: HepG2 cells transfected by full length human PPARα linked to luciferase reporter; expressed in transfected cells; host or cells: HepG2
T1 sequence (Q07869 1-468): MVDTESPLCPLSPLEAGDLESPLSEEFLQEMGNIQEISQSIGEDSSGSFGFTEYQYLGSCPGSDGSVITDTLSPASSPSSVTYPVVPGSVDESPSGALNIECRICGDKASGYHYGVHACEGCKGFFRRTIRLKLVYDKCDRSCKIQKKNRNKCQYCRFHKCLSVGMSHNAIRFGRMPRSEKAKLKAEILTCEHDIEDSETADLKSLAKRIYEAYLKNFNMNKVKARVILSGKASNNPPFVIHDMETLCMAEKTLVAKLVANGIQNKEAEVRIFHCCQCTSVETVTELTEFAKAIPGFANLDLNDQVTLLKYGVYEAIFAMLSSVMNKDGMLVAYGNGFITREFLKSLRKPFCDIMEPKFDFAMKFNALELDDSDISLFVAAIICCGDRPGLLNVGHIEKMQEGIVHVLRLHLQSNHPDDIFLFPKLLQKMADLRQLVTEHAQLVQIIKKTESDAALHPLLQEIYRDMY
Description: HepG2 cells were transfected with the full length PPARα promoter reporter construct and stimulated by INV-75 ([…]). Results in C are expressed as % increase compared to WY 14643.
We used a reporter gene assay in HepG2 cells to screen for agonists of the peroxisome proliferator-activated receptors. Peroxisome proliferator-activated receptors (PPARs) and other members of the nuclear hormone receptor family are important drug targets for the treatment of metabolic diseases. PPARs play crucial roles in lipid and glucose metabolism, respectively. Therefore, screening methods that help to rapidly identify activators of these receptors should be of considerable value. INV-75 activated a classic PPARα gene, Acetyl-CoA Oxidase (ACO) in a dose dependent and time dependent fashion (FIG. 6A). The time course experiment was performed in presence of INV-75 up to 15 hours. […] We next tested the specificity of INV-75 for PPARα by performing experiments in HepG2 cells transfected with yeast GAL4-PPARα-LBD plasmid+UAS-Luciferase; GAL4-PPARδ-LBD plasmid+UAS-Luciferase and […]. The PPARα, PPARδ and PPARγ binding assays were performed using multiple concentrations of INV-75 (1 μM, 10 μM, 100 μM and 1000 μM). The level of luciferase activity corresponded to the degree of PPAR activation. The results were compared with classic PPAR agonists such as WY-14643 (PPARα agonist), Bezafibrate (PPARδ agonist) and Rosiglitazone ([…]).

[2] = tested on: thoracic aorta of WHHL rabbits; assay: Organ chamber experiments on thoracic aortic rings of WHHL rabbits; assay type: in vivo, rabbit
Method: Rabbits were euthanized by injection of lethal doses of pentobarbital. The ascending aortas was removed and 2 mm thoracic aortic rings were suspended in individual organ chambers filled with physiological salt solution buffer (sodium chloride, 130 mEq/L; potassium chloride, 4.7 mEq/L; calcium dichloride, 1.6 mEq/L; magnesium sulfate, 1.17 mEq/L; potassium diphosphate, 1.18 mEq/L; sodium bicarbonate, 14.9 mEq/L; EDTA, 0.026 mEq/L; and glucose, 99.1 mg/dL [5.5 mmol/L]; pH, 7.4), aerated continuously with 5% carbon dioxide in oxygen at 37° C. Vessels were allowed to equilibrate for at least 1 hour at a resting tension of 30 mN before being subjected to graded doses of agonists as described previously. The vasoconstrictor agonists included phenylephrine (PE), endothelin-1 (ET-1), or angiotensin II. Responses were expressed as a percentage of the peak response to 120 mEq/L of potassium chloride. The vessels subjected to PE were washed thoroughly and allowed to equilibrate for 1 hour before beginning experiments with acetylcholine, sodium nitroprusside (SNP) or insulin. […] Results were expressed as a percentage of pre-contraction by PE (0.1 μM). The rings exposed to acetylcholine were thoroughly washed and allowed to equilibrate for 1 hour. […] Results were expressed as a percentage of pre-contraction by PE (0.1 μM). INV-75 decreased aortic contraction by angiotensin II but had no effect on phenylephrine (FIG. 15 and FIG. 16).

[3] = tested on: Watanabe Heritable Hyperlipidemic Rabbits (WHHL); assay: Western blot of VCAM-1 and ICAM-1 in WHHL rabbit aorta; assay type: in vivo
Method: Samples were homogenized and solubilized in radioimmunoprecipitation assay buffer (50 mM Tris-HCl, pH 7.4, 150 mM NaCl, 1 mM EDTA, 1 mM NaF, 1 mM Na3VO4) and 1 mM phenylmethylsulfonyl fluoride, with 0.25% sodiumdeoxycholate and 1.0% Nonidet P-40) and centrifuged at 10,000 g and 4° C. for 30 min. The supernatant was collected and subjected to Western blot analysis. In brief, 40 μg of protein was separated by SDS-polyacrylamide gel electrophoresis and subsequently transferred to nitrocellulose membrane. The membrane was then incubated with: monoclonal anti-β-actin (Sigma, St. Louis, Mo.), monoclonal anti-VCAM (R&D Systems, Minneapolis, Minn.), monoclonal anti-ICAM (R&D Systems, Minneapolis, Minn.), monoclonal anti-phospho-eNOS(pS 1177) (BD Biosciences, Billerica, Mass.), rabbit anti-eNOS (Santa Cruz Biotechnology, Santa Cruz, Calif.), rabbit anti-phospho-Akt (Thr308) (Cell Signaling Technology, Danvers, Mass.), goat anti-Akt (Santa Cruz Biotechnology, Santa Cruz, Calif.), and rabbit anti-p65 (Cell Signaling Technology, Danvers, Mass.). Finally, the membranes were incubated with a horseradish peroxidase-linked secondary antibody and visualized with an enhanced chemiluminescence kit (Amersham Biosciences Inc., Piscataway, N.J.). Band density was quantified by densitometric analysis using ImageJ.

[4] = tested on: Patient; assay: Treatment of a patient with chronic stable angina (Example 20); assay type: in vivo, human; conditions: oral, 1.0 to 100 mg/kg, two weeks
Method: A person with a prior history of a heart attack (myocardial infarction) 10 years ago presents for evaluation. They are complaining of anginal chest pains that are relived with one sub-lingual nitroglycerin and has had these pains chronically. The patient is administered a composition comprising an effective amount of oral 3,4-Methylenedioxy 6-nitro phenyl lipoate (INV-7465) (1.0 to 100 mg/kg). Alternate therapies include, 3,4-methylenedioxy phenyl acetate (INV 73); 3,4-methylenedioxy-6-nitrophenol (INV 74); 3,4-methylenedioxy-6-nitrophenyl acetate (INV 75); or 3,4-Methylenedioxy phenyl lipoate (INV-7065). Patient notes added benefit in their chest pains with this regimen after taking the medication for two weeks.

With `CC(=O)Oc1cc2c(cc1[N+](=O)[O-])OCO2` [INV-75, 3,4-methylenedioxy-6-nitrophenyl acetate] the luciferase activation ([1]; HepG2 transfected with PPARα promoter-reporter construct) was “increased”, the “persistence of effects on PPARα activation” value ([1]; time course) was “up to 15 hours” and the “time of onset of PPARα activation” value ([1]; time course) was under 1 h. For the same compound, the “aortic contraction by angiotensin II” value ([2]; in words) was “decreased”, the “effect on insulin relaxation” value ([2]; in words) was “marginal (non-significant effect” and the “effect on phenylephrine response” value ([2]; in words) was “no effect”. For the same compound, the “effect on response to endothelin-1” value ([2]; in words) was “no effects”, the “effect on SNP response” value ([2]; results not shown) was “no effects” and the “protein expression of ICAM-1” value [3] was “markedly reduced”. The “protein expression of VCAM-1” value [3] was “markedly reduced”.

`O=C(CCCCC1CCSS1)Oc1cc2c(cc1[N+](=O)[O-])OCO2` (centres unmarked) [INV-7465, 3,4-Methylenedioxy 6-nitro phenyl lipoate] was tested, and the chest pains [4] was “added benefit”.
